# Experimental data reported in the COVID Moonshot data (paper PMC7615835).
# Where “and” joins values, the source holds several entries; their conditions need not be identical. Equal entries are not always repeated.
# Target: SARS-CoV-2 Main Protease (SARS-CoV-2) (UniProt P0DTD1)
row,Compound,IC50
1,Cc1ccncc1NC(=O)Cc1cc(Cl)cc(-c2ccc(C3(C)CCO3)cc2)c1 (centres undefined),8.95 µM
2,O=C(Nc1cc[nH]c(=O)c1)C1CCOc2ccc(Cl)cc21 (centres undefined),> 99.5 µM
3,O=C(Cc1cc(Cl)cc(Nc2ccc(Cl)c(Cl)c2F)c1)Nc1cncc2ccccc12,2.26 µM
4,N#CC1(CS(=O)(=O)N2Cc3ccc(Cl)cc3C3(CCN(c4cncc5cc(F)cc(Cl)c45)C3=O)C2)CC1 (centres undefined),23.8 µM
5,CC(C)(C)c1ccc(N(C(=O)c2cocn2)C(C(=O)NCCc2cccc(F)c2)c2cc(=O)[nH]c3ccccc23)cc1 (centres undefined),1.16 µM
6,O=C(Nc1cncc2ccccc12)C1CN(S(=O)(=O)C2CCOC2)Cc2ccc(Cl)cc21 (centres undefined),0.152 µM
7,C[C@H]1CN(c2cc(Cl)cc(CC(=O)Nc3cncc4ccccc34)c2)CCN1C(=O)OC(C)(C)C (stereo in doubt),2.61 µM
8,O=C(Cc1cc(Cl)cc(Nc2c(F)cccc2Br)c1)Nc1cncc2ccccc12,3.39 µM
9,COCCN1CCc2ccc(Cl)cc2C1C(=O)Nc1cncc2ccccc12 (centres undefined),1.88 µM
10,O=C(Cc1cccc(Cl)c1)Nc1cnccc1-c1ccccc1,40.9 µM
11,Cc1ccncc1N1CCC(c2cccc(Cl)c2)S1(=O)=O (centres undefined),85 µM
12,CCCc1cc2c(cc1S(=O)(=O)N1CCN(c3ncccn3)CC1)OCO2,> 99.5 µM
13,O=C(Nc1cncc2ccccc12)C1c2cc(Cl)ccc2CCN1S(=O)(=O)C1CC1 (centres undefined),1.14 µM
14,O=C(CCl)N1CCN(C(c2ccccc2)C2CCOCC2)CC1 (centres undefined),28.4 µM and 15.1 µM
15,CC(C)(C)c1ccc(N(C(=O)c2cc(=O)[nH]c(=O)[nH]2)C(C(=O)NCCc2cccc(F)c2)c2cccnc2)cc1 (centres undefined),> 99.5 µM
16,Cc1ccncc1N1CCN(c2cccc(Cl)c2)C1=O,81.7 µM
17,O=C1N(c2cncc3ccccc23)CCC12CN(S(=O)(=O)N1CCC1)Cc1ccc(Cl)cc12 (centres undefined),0.33 µM
18,O=C(NCCc1ccccc1)[C@@H](c1ccccc1)N1Cc2ccccc2C1=O (stereo in doubt),> 99.5 µM
19,O=C(Nc1cnc2ccccn12)C1CCOc2ccc(Cl)cc21 (centres undefined),3.26 µM
20,O=C(Cc1cc(Cl)cc(Nc2cnc(Br)cn2)c1)Nc1cncc2ccccc12,2.07 µM
21,CN(Cc1ccc(Cl)cc1)c1cc(Cl)cc(CC(=O)Nc2cncc3ccccc23)c1,2.42 µM
22,O=C(CCl)N1CCCN(S(=O)(=O)Cc2ccccc2)CC1,8.81 µM
23,O=C(Cc1cc(Cl)cc(Nc2ccnc(Br)c2)c1)Nc1cncc2ccccc12,2.74 µM
24,Cc1cccc2nc(NC3CCN(c4ccc5nncn5n4)C3)sc12 (centres undefined),> 99.5 µM
25,COCc1ccc(N(C(=O)c2cnc[nH]2)C(C(=O)NCCc2cccc(F)c2)c2cccnc2)cc1 (centres undefined),62.9 µM

row,Compound,IC50
1,Cc1nnc(C2CCN(C(=O)c3ccc(Br)cc3)CC2)[nH]1,> 99.5 µM
2,CCN(Cc1ccc(F)cc1)c1cc(Cl)cc(CC(=O)Nc2cncc3ccccc23)c1,> 99.5 µM
3,CS(=O)(=O)N1CCN(C(=O)CCl)CC1c1ccccc1 (centres undefined),10.6 µM
4,N#CC1(CS(=O)(=O)N2Cc3ccc(Cl)cc3C3(CCN(c4cncc5ccccc45)C3=O)C2)CCOCC1 (centres undefined),0.338 µM
5,CN(Cc1cccc(Cl)c1)C(=O)Cn1nnc2ccccc21,> 99.5 µM
6,O=C(Cc1cc(Cl)cc(OC2CCC(=O)N2)c1)Nc1cncc2ccccc12 (centres undefined),85.9 µM
7,COc1ccc2cncc(N3CCC4(CN(S(=O)(=O)CC5(C#N)CC5)Cc5ccc(Cl)cc54)C3=O)c2c1 (centres undefined),0.215 µM
8,O=C(Cc1cc(Cl)cc(Nc2cc(Cl)ccc2Br)c1)Nc1cncc2ccccc12,2.1 µM
9,CC(=O)Nc1ccc(Nc2cc(Cl)cc(CC(=O)Nc3cncc4ccccc34)c2)c(C(F)(F)F)c1,2.09 µM
10,O=C(Nc1ccc2nccnc2c1)c1csc2cncn12,> 99.5 µM
11,Cc1ccncc1NC(=O)N(Cc1ccccc1)c1cccc(Cl)c1,22.9 µM
12,CC(C)(C)OC(=O)[C@H]1CCCN1c1cc(Cl)cc(CC(=O)Nc2cncc3ccccc23)c1 (stereo in doubt),2.52 µM
13,COc1cc2cncc(NC(=O)Cc3cccc(Cl)c3)c2cc1OC,> 99.5 µM
14,C[C@H](C/C=C/C(C)(C)O)[C@H]1CC[C@@]2(C)[C@@H]3C=C[C@@]45OC[C@]3(CC[C@]12C)[C@@H]4CC[C@H](O)C5(C)C (stereo in doubt),> 99.5 µM
15,Cc1ccccc1NC(=O)CC1SC(=O)N(c2ccccc2)C1=O (centres undefined),0.443 µM
16,O=C(Cc1ccncc1Cl)Nc1cncc2ccccc12,52.6 µM
17,O=C(Nc1cncc2ccccc12)C1CN(Cc2nnc[nH]2)Cc2ccc(Cl)cc21 (centres undefined),0.784 µM
18,O=C1CC(C(=O)Nc2cncc3ccccc23)c2cc(Cl)cc(Cl)c2N1 (centres undefined),2.45 µM and 3.76 µM
19,CS(=O)(=O)N1CCc2ccc(Cl)cc2C1C(=O)Nc1cncc2ccccc12 (centres undefined),1.6 µM
20,O=C(NCCc1cccc(F)c1)C(c1cccnc1)N(C(=O)c1cnc[nH]1)c1ccc(Cl)cc1 (centres undefined),> 99.5 µM
21,CN(c1cc(Cl)cc(CC(=O)Nc2cncc3ccccc23)c1)C(c1ccccc1)c1ccccc1,2.34 µM
22,O=c1[nH]c2ccc(NC(=S)Nc3ccccc3Cl)cc2[nH]1,> 99.5 µM
23,O=C(Cc1cc(Cl)cc(N2CCn3c(nnc3C(F)(F)F)C2)c1)Nc1cncc2ccccc12,2.01 µM
24,O=C(NCCc1cccc(F)c1)C(c1cccnc1)N(C(=O)c1cocn1)C1CCCOC1 (centres undefined),> 99.5 µM
25,Cc1ccncc1CC(=O)Nc1cccc(Cl)c1,29.9 µM

row,Compound,IC50
1,Cc1ccncc1NC(=O)Cc1cccc(C#N)c1,63.7 µM and 59 µM
2,O=C(CCl)N1CCN(C2(c3cccc(Cl)c3)CC2)CC1,64.9 µM and 42.1 µM
3,COc1ccccc1OC(C)CNC(=O)c1cc(=O)[nH]c2cc(F)ccc12 (centres undefined),> 99.5 µM
4,O=C(Nc1nncn1C1CC1)C1CCS(=O)(=O)c2ccccc21 (centres undefined),68.9 µM
5,O=C(NCCc1cccc(F)c1)C(c1cccnc1)N(C(=O)c1cocn1)c1ccc(N2CCCC2=O)cc1 (centres undefined),76.6 µM
6,O=C(NCc1ccccn1)[C@H]1CN(C(=O)CCl)CCN1S(=O)(=O)c1ccsc1 (stereo in doubt),0.307 µM
7,O=c1c2ccccc2c(-c2ccc(Br)cc2)nn1CC(O)CN1CCOCC1 (centres undefined),> 99.5 µM
8,O=C(c1ccc2nc(C(F)F)[nH]c2c1)N1CCC(C2CCNC2)CC1 (centres undefined),> 99.5 µM
9,CNC(=O)CN1C[C@H](C(=O)Nc2cncc3cccc(Cl)c23)c2cc(Cl)ccc2C1=O (stereo in doubt),0.0964 µM
10,O=C(NCCc1cccc(F)c1)C(c1cccnc1)N(C(=O)c1cocn1)c1ccc2nc(C(F)(F)F)[nH]c2c1 (centres undefined),77.6 µM
11,CCC(C)(C)CCN(Cc1ccsc1)C(=O)Cn1nnc2ccccc21,78.5 µM
12,CN(C)CCCOc1ccc2cncc(N3CCC4(CN(S(=O)(=O)CC5(C#N)CC5)Cc5ccc(Cl)cc54)C3=O)c2c1 (centres undefined),0.149 µM
13,Cc1ccncc1NC(=O)Cc1cc(Cl)cc(OCCN2CCOCC2C)c1 (centres undefined),> 99.5 µM
14,CC(NC(=O)c1nccc2cccnc12)c1ccc2[nH]c(=O)oc2c1 (centres undefined),> 99.5 µM
15,CC(C)(C)c1ccc(N(C(=O)c2ccco2)C(C(=O)NCc2ccccc2)c2cccnc2)cc1 (centres undefined),4.36 µM
16,Cn1cc(-c2cc(C(=O)N(c3ccc(C(C)(C)C)cc3)C(C(=O)NCCc3cccc(F)c3)c3cccnc3)on2)cn1 (centres undefined),> 99.5 µM
17,NCc1cn(CC(=O)N(Cc2ccsc2)c2ccc(-n3cnnc3)cc2)nn1,> 99.5 µM
18,N#CCc1cccc(NC(=O)c2cnn3cc(Br)cnc23)n1,> 99.5 µM
19,O=C(Cc1cc(Cl)cc(Nc2cccc(N3CCOCC3)c2)c1)Nc1cncc2ccccc12,2.44 µM
20,CN(C(=O)c1ccccc1N)c1cc(Cl)cc(CC(=O)Nc2cncc3ccccc23)c1,1.94 µM
21,CC(C)(C)c1ccc(N(C(=O)c2scnc2Cl)C(C(=O)NCCc2cccc(F)c2)c2cccnc2)cc1 (centres undefined),> 99.5 µM
22,Cc1ccc(NC2=C(c3ccccc3)C(=O)N(Cc3cccnc3)C2=O)cc1Cl,> 99.5 µM
23,OC(Cc1cccc(Cl)c1)Cn1cncn1 (centres undefined),65.3 µM
24,O=C1CC(NC(=O)C2CCOc3ccc(Cl)cc32)CN1 (centres undefined),> 99.5 µM
25,O=C(Cc1cc(Cl)cc(Nc2ccccc2OCC(F)(F)F)c1)Nc1cncc2ccccc12,1.96 µM

row,Compound,IC50
1,CN1CCCN(c2ccc(N(C(=O)c3cocn3)C(C(=O)NCCc3cccc(F)c3)c3cccnc3)cc2)C1=O (centres undefined),61 µM
2,CC(C)(C)c1ccc(N(C(=O)c2ccc(=O)[nH]n2)C(C(=O)NCCc2cccc(F)c2)c2cccnc2)cc1 (centres undefined),> 99.5 µM
3,Cc1nc2ccc(NC(=O)NCc3ccc4[nH]c(=O)[nH]c4c3)cc2o1,> 99.5 µM
4,Cc1[nH]c2ccccc2c1/C=N/c1sc2c(c1C#N)CCC(C)C2 (centres undefined),> 99.5 µM
5,CC(C)CS(=O)(=O)N1Cc2ccc(Cl)cc2C(C(=O)Nc2cncc3ccccc23)C1 (centres undefined),0.107 µM
6,Cc1cc(C(F)(F)F)nc2n[nH]c(NC(=O)Cc3cccc(Cl)c3)c12,> 99.5 µM
7,O=C(Cc1cc(Cl)cc(Nc2ccn([C@H]3C[C@H](O)[C@@H](CO)O3)c(=O)n2)c1)Nc1cncc2ccccc12 (stereo in doubt),1.84 µM
8,O=C(NCCc1cccc(F)c1)C(c1cccnc1)N(C(=O)c1cnc[nH]1)C1CCC2(CCO2)CC1 (centres undefined),> 99 µM
9,CCc1ccc(S(C)(=O)=O)cc1C(=O)N1CCC(C2CCNC2)CC1 (centres undefined),> 99.5 µM
10,O=C(CC1(C(=O)Nc2cncc3ccccc23)CCOc2ccc(Cl)cc21)N1CCCC1c1nn[nH]n1 (centres undefined),7.98 µM
11,CC(C)(C)c1ccc(N(C(=O)c2cocn2)C(C(=O)NCCc2cccc(F)c2)c2c(N3CCOCC3)nc3ccccn3c2=O)cc1 (centres undefined),> 99.5 µM
12,CCC1(C(=O)Nc2cncc3ccc(S(C)(=O)=O)cc23)CNC(=O)c2ccc(Cl)cc21 (centres undefined),1.45 µM
13,C/C=C/C=C/C(=O)N1CC=C(c2c[nH]c3ncccc23)CC1,> 99.5 µM
14,O=C(Cc1cccc(Cl)c1)Nc1[nH]nc2cc(F)ccc12,> 99.5 µM
15,O=C(Cc1cncnc1)Nc1cc(F)cc(OC2CC(=O)N2)c1 (centres undefined),24.6 µM and 25.3 µM
16,Cc1cc(Cl)cc(CC2CCN(C(=O)CCl)CC2)c1,3.57 µM
17,Cc1ccncc1NC(=O)[C@H](C)OC(F)F (stereo in doubt),> 99.5 µM
18,O=C(CCl)N1CCN(Cc2cccc3ccccc23)CC1,5.76 µM
19,CC(C)(C)c1ccc(N(C(=O)c2cnc[nH]2)C(C(=O)NCCc2cccc(F)c2)c2cc(=O)[nH]c3ccccc23)cc1 (centres undefined),1.31 µM
20,CC(C)(C)c1ccc(N(C(=O)c2c[nH]c(=O)s2)C(C(=O)NCCc2cccc(F)c2)c2cccnc2)cc1 (centres undefined),29.1 µM
21,COCc1csc(-c2nnc(-c3sc(-c4ccccc4)nc3C)o2)c1,> 99.5 µM
22,CNC(=O)CN1Cc2ccc(Cl)cc2C(C(=O)Nc2cncc3ccc(C(C)(C)O)cc23)C1 (centres undefined),0.564 µM
23,CNc1ccc(N(C(=O)Cn2nnc3ccccc32)c2cccc(Cl)c2)cc1,5.34 µM
24,O=C(NCCc1cccc(F)c1)C(c1cccnc1)N(C(=O)c1cnc[nH]1)c1ccc(OC(F)F)cc1 (centres undefined),22.1 µM
